From PMC4061482 (Frontiers in Oncology, 2014)

System: NCI-H460 cells
Experiment: 17β-estradiol ELISA after estrone stimulation
Assay type: cell-based
Details: Homo sapiens, 28 nM estrone, 24 h, read-out: Inhibition of 17β-estradiol formation
Experimental: Cells were seeded into 96-well plates in hormone-deprived media at appropriate seeding densities [10,000–50,000 cells per well for all lines except HCC1500 (100,000 cells per well; 11β-PGF2α ELISA)] to reach approximately 70% confluency at the time of sampling and were left to settle for 24 h at 37°C and 5% CO2. Inhibitors were added to the plates at single or multiple concentrations for 1 h prior to administration of equimolar (28 nM) concentrations of PGD2 (11β-PGF2α ELISA), androstenedione (testosterone ELISA), or estrone (17β-estradiol ELISA). The plates were returned to the incubator for a further 24 h before cell supernatant was removed for analysis of 11β-PGF2α, testosterone, or 17β-estradiol by ELISA as per manufacturer’s instructions (11β-PGF2α and testosterone ELISA, Cayman Chemical Company; 17β-estradiol ELISA, Oxford Biomedical Research), and cells were fixed for sulforhodamine B analysis as described below. Each ELISA plate was read at a wavelength of 405 nm (11β-PGF2α and testosterone) or 650 nM (17β-estradiol) on a SpectraMax M2 microplate reader (Molecular Devices) and quantitated against a standard curve generated in hormone-deprived culture media. Cross-reactivity to PGD2, androstenedione, or estrone was accounted for by adding these to cell-free wells of each ELISA plate. […]

## CC1CCCCN1S(=O)(=O)c1ccc(N2CCCC2=O)cc1 (stereo not shown) [SN33638]
  inhibition at 10 µM: 39.6%
